According to patent US5370861A, “Iodinated esters contrast medium and use” (Nycomed Imaging AS, priority 1989, dated 1994):
Each block holds one compound with its values, some of them ahead of it.

Experiments:
[1] = system: hepatocytes; conditions: in vivo, iv; cited from earlier work
[2] = In vitro biodegradation control: hydrolysis in phosphate buffered saline (PBS), pH 7.4; type: physicochemical; conditions: read-out: substance hydrolysed in PBS
Protocol: (§1) The powdered product of Example 1 was suspended in Seronorm (0.5 mgml) at pH 7.4 and agitated at 37° C. As a control the experiment was also performed in phosphate buffered saline (PBS) at pH 7.4. At different time points samples were taken from the supernatant after centrifugation of the vial (4000 rpm, 10 rain). The release of Isopaque (5-(N-acetylamino)-3-(N-acetyl-N-methylamino)-2,4,6-triiodobenzene carboxylic acid) was analysed by HPLC. After 6 hours 100% of the substance was hydrolysed. In PBS only 1.1% was hydrolysed during the same period.

[3] = In vitro biodegradation: hydrolysis with release of Isopaque in Seronorm, pH 7.4, 37° C (HPLC); type: in vitro ADME; conditions: seronorm serum, Seronorm (0.5 mg/ml), read-out: substance hydrolysed after 6 hours in Seronorm
Protocol: The following Examples are given by way of illustration only. Seronorm is a test serum available from Nycomed AS, Oslo, Norway.
as §1

[4] = system: liver; experiment: CT studies in rabbit: contrast enhancement in the liver; type: in vivo, rabbits; conditions: dynamic CT, iohexol 350 mg I/ml
Protocol: Contrast enhancement in the liver was investigated in rabbits. Anaesthetized animals were placed in a Siemens CT scanner and injected with particles of Pharmaceutical Formulation 4 in the marginal ear vein. Particle concentration was 28 mg/ml. A particle dose corresponding to 75 mg I/kg gave an increase in liver contrast from a basal level of […] to about 120 HU. Thus, the contrast enhancement on this dose level was about 35-40 HU. […] The average iodine content in these livers was 1.1 mg I/g liver. […] About 8 times more iodine had to be injected in these animals to achieve the same contrast enhancement of the liver. With this vascular contrast medium, the enhancement was transient, lasting for one or two minutes.

Compound: CCOC(=O)c1c(I)cc(I)c(NC(=O)CCCCC(=O)Nc2c(I)cc(I)c(C(=O)OCC)c2I)c1I [ethyl ester of iodipamide, ethyl ester of the water soluble X-ray contrast agent, iodipamide]
lipid vacuoles in the hepatocytes [1]: increase in lipid vacuoles in the hepatocytes

degraded at 6 h [2]: 1.1%
metabolised at 6 h [3]: 100%
Compound: CCOC(=O)OC(C)OC(=O)c1c(I)c(NC(C)=O)c(I)c(N(C)C(C)=O)c1I (stereo not drawn) [Example 1, 1-(Ethyloxycarbonyloxy)ethyl 5-(N-acetylamino)-3-(N-acetyl-N-methylamino)-2,4,6-triiodobenzenecarboxylate]

Compound: CC(=O)N(CC(O)CO)c1c(I)c(C(=O)NCC(O)CO)c(I)c(C(=O)NCC(O)CO)c1I (stereo not drawn) [iohexol]
duration of enhancement [4]: one or two
iodine to be injected to achieve the same contrast enhancement of the liver, relative to Pharmaceutical Formulation 4 [4]: About 8 times
nature of enhancement with vascular contrast medium [4]: transient
